# Results taken from the METLIN SMRT retention time set (Domingo-Almenara et al. 2019).
# Assay: gradient 5% acetonitrile 3 min, to 50% in 2 min, to 85% in 15 min, held 3 min, 100 µL/min
# Conditions: column: Zorbax Extend-C18 2.1 x 50 mm; eluents: water / acetonitrile, 0.1% formic acid
# Summary of the method: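 Mixtures of ~100 pure standards were chromatographed on a Zorbax Extend-C18 column (2.1 × 50 mm, 1.8 μm) at 100 μL/min using water and acetonitrile, each with 0.1% formic acid. Detection used a quadrupole time-of-flight mass spectrometer in positive and negative ionization mode, and data collection spanned 3 months. Retention time was obtained from adduct peaks picked computationally and each checked manually.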
row,Structure (SMILES),RP-LC retention time [s]
1,C=CCNC(=O)c1cn(-c2ncccc2-c2nc(C(C)(C)C)no2)cn1,776
2,Cc1ccc(CN2CCC3(CC2)CC(O)(c2ccccn2)CCO3)nc1 (stereo not given),539
3,CCc1nc2cc(-c3noc(-c4ccc(OC)cc4)n3)ccc2o1,1180
4,O=C(c1nc(Cn2nc(-c3ccc(F)cc3)ccc2=O)no1)N1CCC2(CC1)OCCO2,783
5,COCCNC(=O)Cn1ccc2c(SCc3ccc(C)cc3)nccc21,658
6,CCOc1cc(=O)c(C(N)=O)nn1-c1ccc(F)c(F)c1,637
7,CO[C@@H]1C=C2CCN(C)[C@@H]2C2c3cc4c(cc3C(=O)O[C@@H]21)OCO4 (stereo not given in full),604
8,CCc1noc(NC(C)=O)c1-c1ccc(C)c(S(=O)(=O)NCCC(C)C)c1,856
9,COc1nn(C)cc1C(=O)Nc1cc(C)ns1,598
10,Cc1nccn1Cc1nc(-c2ccc(F)cc2)no1,614
11,Cc1ccc(Cn2cc(-c3ccncc3)cc2C(=O)NCc2ccc(N(C)C)cc2)cc1,630
12,CCCc1cc(N2CCN(C(=O)C3CCN(C(C)=O)CC3)CC2)nc2nnc(CC)n12,587
13,OC1(c2ccccn2)CCOC2(CCN(Cc3cccc(C(F)(F)F)c3)CC2)C1 (stereo not given),592
14,Cc1cc(NC(=O)Cn2cnc3c(cnn3C(C)(C)C)c2=O)no1,688
15,CC(C)CNC(=O)Cc1cn(C)c2ncccc12,595
16,N#Cc1ccc(C(=O)NCCn2c(C(F)(F)F)nc3cccnc32)cc1,720
17,COc1cc(-c2nc3ccc(C)cn3c2Nc2ccc(C)cc2)ccc1O,661
18,CCOc1cc(C(=O)Nc2nc(-c3ccc4c(c3)NC(=O)CO4)c(C)s2)cc(OCC)c1OCC,1140
19,CCOc1ccc(-c2nc(-c3ccc4c(c3)N(CC)C(=O)CO4)no2)cc1OCC,1200

row,Structure (SMILES),RP-LC retention time [s]
1,O=C1[C@H]2CN(Cc3cccc(OC(F)(F)F)c3)C[C@H]2C(=O)N1CCc1ccccc1,1000
2,CCOC(=O)c1ccc(N2C=C(C(=O)OC)S(=O)(=O)c3ccc(F)cc32)cc1,933
3,Cc1oc(-c2[nH]ncc2C(=O)N(C)C)cc1S(=O)(=O)NCC(C)C,671
4,CCOc1ccc(-c2cc3c(SCC)nccn3n2)cc1,1300
5,CCOC(=O)CNC(=O)N1CCCC1c1ccc(F)cc1 (stereo not given),760
6,CNC(=O)N1CCC(C2CCN(C(=O)C3CC=CC3)C2)CC1 (stereo not given),646
7,O=C(CNC(=O)c1cccc(Cl)c1)Nc1nc2ccccc2[nH]1,646
8,C#CCCNC(=O)c1ccc(C)c(C)c1,720
9,COCc1noc([C@@H]2CN(C(=O)CCc3c(C)noc3C)C[C@H]2C(N)=O)n1,607
10,COc1cc(-c2noc(Cn3c(=O)n(-c4ccccc4)c(=O)c4sccc43)n2)cc(OC)c1OC,868
11,CNC(=O)c1cc(-c2ccc(OC)cc2)n(C)c1C,783
12,COc1c(C(=O)NC(C)c2ccccc2)sc2cccc(F)c12 (stereo not given),1140
13,COc1cccc2cc(C(=O)Nc3ccc4c(c3)C(=O)Nc3ccccc3O4)oc12,950
14,CCOC(=O)c1nc(NCCc2ccc(OCC)c(OCC)c2)c2ccccc2n1,801
15,COCCCNc1c(-c2ccc(C)cc2)nc2sc(C(=O)N(C)C)c(C)n12,732
16,COc1cccc(NC(=O)N2CCC3(C2)C(=O)Nc2ccc(OC)cc23)c1 (stereo not given),701
17,CC(C)(Oc1ccc(Cl)cc1)C(=O)Nc1ccc(-c2cn3cccnc3n2)cc1,794
18,CSc1ccc(CNC(=O)CN2CC=C(c3cnn(-c4ccccc4)c3)CC2)cc1,720

# Other lines, results leading:
row,RP-LC retention time [s],Structure (SMILES)
1,846,CSc1ccc(CNC(=O)C2CCN(c3nnc(-c4ccccc4)o3)CC2)cc1
2,849,Cc1ccc(Cl)cc1NC(=O)N1CCC(CC(=O)NCc2ccc(F)cc2)CC1
3,805,CCOc1ccccc1CNC(=O)Cc1nnc(-c2cccc(F)c2)o1
4,891,CC(C)Cn1c(=O)c2cc(C(=O)N(C)CC(=O)N3CCCCCC3)nn2c2ccccc21
5,899,CCC(C(=O)N1CCc2ccccc21)n1cnc2nc3c(cc2c1=O)CCCC3 (stereo not given)
6,563,Cc1ccc(NC(=O)N2CCN(c3cnn4c(C)nnc4c3)CC2)cc1
7,939,COC(=O)c1cc(S(=O)(=O)N2CCCC2C(=O)Nc2ccc(C)c(C)c2)cn1C (stereo not given)
8,803,Cc1cc(N2CCOCC2)nc(N2CCN(S(=O)(=O)c3cc(C(C)C)ccc3C)CC2)n1
9,883,NC(=O)c1cc(-c2ccccc2)sc1NC(=O)c1ccc([N+](=O)[O-])o1
10,933,O=S(=O)(Nc1cccn2c(C3CCC3)nnc12)c1ccc2c(c1)CCCC2
11,722,COCCC(=O)NC1CCN(C2=NS(=O)(=O)C(c3cccc(Cl)c3)=C2C)CC1
12,1130,O=C(Nc1ccc([N+](=O)[O-])cc1Cl)c1cc(Cl)ccc1O
13,797,CCCC(=O)N1CCCN(C2=NS(=O)(=O)C(c3ccc(C)cc3)=C2C)CC1
14,701,CC(C(=O)N1CC(n2cc(COCC3CC3)nn2)C1)c1ccccc1 (stereo not given)
15,1410,CC(C)(C)c1ccc(C(=O)NC2(c3nc(-c4ccccc4)no3)CCCCC2)cc1
16,623,COc1ccc(S(=O)(=O)N2CCCC(C(=O)NCc3cccnc3)C2)cc1C (stereo not given)
17,858,CCN1c2ccc(C)cc2C(=O)NC12CCN(C(=O)c1ccc(Cl)cc1)CC2
18,769,CCOc1cc(=O)n2c(c1C(=O)Nc1ccc(Cl)cc1)CCCC2
19,767,O=C(Nc1nnc(C2CC(=O)N(c3ccccc3)C2)o1)c1cccc(Cl)c1 (stereo not given)
20,800,CCC1Oc2ccc(S(=O)(=O)N3CCC(C(=O)N(C)Cc4ccco4)CC3)cc2NC1=O (stereo not given)
21,733,Cc1ccc(CNC2=NCCNC23CCN(S(=O)(=O)c2ccc(F)cc2)CC3)cc1
22,842,COc1ccc(C2(CNS(=O)(=O)c3ccc(OC)c(Cl)c3)CCOCC2)cc1
23,1110,O=C(Nc1cccc(Cl)c1)C1CCCN(c2nc3ccsc3c(=O)n2Cc2ccc(F)cc2)C1 (stereo not given)
24,1110,CC(C)CNC(=O)c1cn(-c2ccc(-c3nc(C4CC4)no3)cn2)cn1
25,1070,Cc1cc(C)cc(NC(=O)CN2C(=O)C(C(=O)N3CCCC3)Sc3ccccc32)c1 (stereo not given)
26,610,Cn1nc2n(c1=O)CCN(C(=O)c1ccc3c(c1)OCO3)CC2
27,694,CCn1cnnc1C1CCCCN1S(=O)(=O)c1cccs1 (stereo not given)

row,RP-LC retention time [s],Structure (SMILES)
1,992,Cc1sc(-c2noc(C(C)C)n2)cc1S(=O)(=O)N1CCC(C(=O)NCc2ccco2)CC1
2,876,COc1ccc(NC(=O)N2CCCC2c2nc(-c3ccccc3)no2)cc1 (stereo not given)
3,1110,O=S(=O)(c1ccc(-c2noc(-c3ccc(F)c(F)c3)n2)cc1)N1CCOCC1
4,884,O=C1CCC(c2ccccc2)=NN1c1nc2ccccc2s1
5,669,CCOc1nccnc1NC1CCN(C(=O)c2ccn(CC)n2)CC1
6,1110,CCn1cc(-c2nc(C(=O)Nc3ccc(OC)c(Cl)c3)cs2)c2cccnc21
7,684,O=c1oc2cc(O)c(O)cc2c2c1CCCC2
8,744,Cc1noc2ncn(CC(=O)Nc3ccc(F)cc3F)c(=O)c12
9,634,Cc1ccc(NC(=O)N2CCN(c3cnn4c(C)nnc4c3)CC2)c(C)c1
10,946,COC(=O)c1sc2ccccc2c1NC(=O)c1ccc(S(=O)(=O)N2CCCC2)cc1
11,949,CCc1noc(C2(NC(=O)c3cccc(F)c3)CCCCC2)n1
12,693,COc1ccc(NC(=O)C2CCN(S(=O)(=O)c3c(C)[nH]c(C)c3C(=O)N3CCCC3)CC2)cc1
13,840,CCCCNC(=O)C1CCCN(c2ccc(=O)n(-c3cccc(Cl)c3)n2)C1 (stereo not given)
14,716,COc1cccc(/C=C/C(=O)N2CCC(c3cc(N)on3)CC2)c1
15,745,CCC(=O)N1CCc2cc(N3CC(C(=O)NCc4cccc(C)c4)CC3=O)ccc21 (stereo not given)
16,752,Cc1ccc(S(=O)(=O)N2CCC(C(=O)NCc3cscn3)CC2)c(C)c1
17,760,CCN1CCn2cc(S(=O)(=O)NCc3ccccc3C(F)(F)F)cc2C1=O
18,920,Cc1ccc(-c2noc(Cn3ccn(-c4cccc(Cl)c4)c(=O)c3=O)n2)cc1
19,859,Cc1ccnc(Nc2nc(-c3ccc(C)cc3C)cs2)c1
20,891,CCOC(=O)N1CCN(c2cnc3cc(S(=O)(=O)N4CCCCC4)ccc3n2)CC1
21,678,Cc1c(Cl)cccc1NC(=O)Cn1cnc2nc(N3CCOCC3)ncc2c1=O
22,779,Cc1ccccc1S(=O)(=O)N1CCC(c2cc(N)on2)CC1
23,887,Cc1ccc(N2C=C(C(=O)N3CCOCC3)S(=O)(=O)c3ccc(F)cc32)cc1C
24,847,O=C(c1cc(F)ccc1F)N1CCN(c2cc(-c3ccc(Cl)cc3)[nH]n2)CC1
25,821,O=C(C1=CN(c2ccccc2)c2ccccc2S1(=O)=O)N1CCCCC1
26,921,O=C(Nc1cccc(C(F)(F)F)c1)Nc1cnn(-c2ncc(N3CCCC3)cn2)c1
